Source: PubChem BioAssay (NCI)
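Compound exposure: 48 hours, 5 concentrations, 96-well plates. Abbreviation: GI50, concentration required for 50% inhibition of growth. TGI is the concentration that stops growth completely.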

Key:
Assay in all cases: inhibition of tumour cell growth, NCI panel, 48 h
T-47D breast = test system: T-47D breast
LOX IMVI melanoma = test system: LOX IMVI melanoma
MDA-MB-435 = test system: MDA-MB-435
SNB-19 CNS = test system: SNB-19 CNS
MDA-MB-231 breast = test system: MDA-MB-231 breast
HOP-92 NSCLC = test system: HOP-92 NSCLC

## O=C1c2cc3c(cc2-c2c1c1cc(Cl)c(Cl)cc1c(=O)n2CCCn1ccnc1)OCO3
T-47D breast
  GI50: < 0.01 µM
  TGI: 0.0636 µM
LOX IMVI melanoma
  GI50: < 0.01 µM
  TGI: 0.0183 µM
MDA-MB-435
  GI50: 0.0162 µM
  TGI: > 100 µM
SNB-19 CNS
  GI50: < 0.01 µM
  TGI: > 100 µM
MDA-MB-231 breast
  GI50: 0.0996 µM
  TGI: > 100 µM

## COc1ccc(N(C)c2nc(C)nc3ccccc23)cc1
T-47D breast
  GI50: 14.2 µM
  TGI: > 100 µM
LOX IMVI melanoma
  GI50: < 0.01 µM
  TGI: > 51.4 µM
MDA-MB-435
  GI50: < 0.01 µM
  TGI: < 0.01 µM
HOP-92 NSCLC
  GI50: < 0.01 µM
  TGI: 4.94 µM
SNB-19 CNS
  GI50: < 0.01 µM
  TGI: > 100 µM
MDA-MB-231 breast
  GI50: < 0.01 µM
  TGI: > 100 µM

## COc1ccccc1C(=O)/C=C/c1cc2cccc(OC)c2[nH]c1=O
T-47D breast
  GI50: 0.626 µM
  TGI: 12.8 µM
LOX IMVI melanoma
  GI50: 0.0262 µM
  TGI: 0.724 µM
HOP-92 NSCLC
  GI50: 0.115 µM
  TGI: 2.07 µM
SNB-19 CNS
  GI50: 0.0332 µM
  TGI: 1.47 µM
MDA-MB-231 breast
  GI50: 0.151 µM
  TGI: 1.79 µM

## C[C@@H](c1ccc2nccn2c1)n1nnc2ncc(-c3cnn(C)c3)nc21
T-47D breast
  GI50: 53 µM
  TGI: > 100 µM
LOX IMVI melanoma
  GI50: > 100 µM
  TGI: > 100 µM
MDA-MB-435
  GI50: > 100 µM
  TGI: > 100 µM
HOP-92 NSCLC
  GI50: 58 µM
  TGI: > 100 µM
SNB-19 CNS
  GI50: > 100 µM
  TGI: > 100 µM
MDA-MB-231 breast
  GI50: > 100 µM
  TGI: > 100 µM

## OB([O][Hg][c]1ccccc1)[O][Hg][c]1ccccc1
LOX IMVI melanoma
  GI50: 0.173 µM
  TGI: 0.366 µM
MDA-MB-435
  GI50: 0.475 µM
  TGI: 1.63 µM
HOP-92 NSCLC
  GI50: 0.185 µM
  TGI: 0.528 µM
SNB-19 CNS
  GI50: 1.46 µM
  TGI: 2.84 µM
MDA-MB-231 breast
  GI50: 0.628 µM
  TGI: 1.89 µM

## Cc1ccc(S(=O)(=O)NC(CCC(=O)Nc2ccc(Cl)cc2)C(=O)Nc2ccc(Cl)cc2)cc1 (stereo not drawn)
T-47D breast
  GI50: 0.151 µM
  TGI: 2.64 µM
LOX IMVI melanoma
  GI50: 0.258 µM
  TGI: 5.63 µM
MDA-MB-435
  GI50: 0.169 µM
  TGI: 9.74 µM
HOP-92 NSCLC
  GI50: 0.805 µM
  TGI: 2.76 µM
SNB-19 CNS
  GI50: 0.707 µM
  TGI: 4.4 µM
MDA-MB-231 breast
  GI50: 0.263 µM
  TGI: 4.23 µM

## O=S(=O)(c1ccc(NC(=S)N/N=C/c2ccccc2O)cc1)N1CCCCC1
T-47D breast
  TGI: > 52.8 µM
LOX IMVI melanoma
  TGI: 0.109 µM
MDA-MB-435
  TGI: 11.2 µM
HOP-92 NSCLC
  TGI: 66.1 µM
SNB-19 CNS
  TGI: > 100 µM
MDA-MB-231 breast
  TGI: > 44.5 µM

## COc1cc2cc(Oc3ccc(NC(=O)Nc4cccc(C(F)(F)F)c4)cc3)c(C)nc2cc1OCCN1CCCCC1
MDA-MB-435
  GI50: 1.59 µM
  TGI: 2.94 µM
HOP-92 NSCLC
  GI50: 1.08 µM
  TGI: 2.34 µM
SNB-19 CNS
  GI50: 1.66 µM
  TGI: 3.1 µM
MDA-MB-231 breast
  GI50: 1.36 µM
  TGI: 2.73 µM

## C1CCC([PH+](C2CCCCC2)C2CCCCC2[PH+](C2CCCCC2)C2CCCCC2)CC1.[Au].[CH-]1CCCCC1C1CCCC[N-]1 (stereo not drawn)
HOP-92 NSCLC
  GI50: 0.241 µM
  TGI: 1.14 µM

## CC12OC(C(=O)C13CC3)C1C(=O)c3ccccc3C(=O)C12 (stereo not drawn)
T-47D breast
  GI50: 24.4 µM
  TGI: > 100 µM
MDA-MB-435
  GI50: 41.4 µM
  TGI: > 100 µM
HOP-92 NSCLC
  GI50: 21.8 µM
  TGI: 60.7 µM
SNB-19 CNS
  GI50: 36.4 µM
  TGI: > 100 µM
MDA-MB-231 breast
  GI50: 46.8 µM
  TGI: > 100 µM

## O=C(Nc1ccncc1)C(=O)c1cn(S(=O)(=O)c2ccc(Br)cc2)c2ccccc12
T-47D breast
  GI50: 7.74 µM
  TGI: > 100 µM
LOX IMVI melanoma
  GI50: 7.49 µM
  TGI: > 100 µM
MDA-MB-435
  GI50: 0.459 µM
  TGI: 3.49 µM
HOP-92 NSCLC
  GI50: 2.14 µM
  TGI: 22.4 µM
SNB-19 CNS
  GI50: 14.1 µM
  TGI: > 100 µM
MDA-MB-231 breast
  GI50: 10.2 µM
  TGI: 83 µM

## COc1cc2c3c(n(C)c(=O)c2cc1OC)-c1cc2c(cc1/C3=C\CCCCN)OCO2
T-47D breast
  GI50: 37.7 µM
  TGI: > 100 µM
LOX IMVI melanoma
  GI50: 12.9 µM
  TGI: 41.1 µM
MDA-MB-435
  GI50: 5.56 µM
  TGI: 20.3 µM
HOP-92 NSCLC
  GI50: 43.5 µM
  TGI: > 100 µM
SNB-19 CNS
  GI50: 23.9 µM
  TGI: 71.9 µM
MDA-MB-231 breast
  GI50: 2.94 µM
  TGI: 11.4 µM

## N#C/C(=C\c1c(-c2ccccc2)[nH]c2ccccc12)C(=O)c1ccc(Cl)cc1
T-47D breast
  GI50: 2.89 µM
  TGI: 18.4 µM
LOX IMVI melanoma
  GI50: 4.76 µM
  TGI: > 100 µM
HOP-92 NSCLC
  GI50: 3.35 µM
  TGI: 22.1 µM
SNB-19 CNS
  GI50: 3.07 µM
  TGI: 20.2 µM
MDA-MB-231 breast
  GI50: 4.09 µM
  TGI: 47.8 µM

## Cc1cc2c(C)c3cc(C)c(N)cc3nc2cc1N
T-47D breast
  GI50: 0.754 µM
  TGI: 5.28 µM
LOX IMVI melanoma
  GI50: 0.893 µM
  TGI: 4.03 µM
MDA-MB-435
  GI50: 1.06 µM
  TGI: 5.93 µM
HOP-92 NSCLC
  GI50: 1.54 µM
  TGI: 5.13 µM
SNB-19 CNS
  GI50: 0.685 µM
  TGI: 10.2 µM
MDA-MB-231 breast
  GI50: 1.09 µM
  TGI: 3.48 µM

## O/N=C1\CCc2cc(-c3nc(C4CCNCC4)[nH]c3-c3ccncc3)ccc21
T-47D breast
  GI50: > 25 µM
  TGI: > 25 µM
LOX IMVI melanoma
  GI50: > 25 µM
  TGI: > 25 µM
MDA-MB-435
  GI50: 12.1 µM
  TGI: > 25 µM
HOP-92 NSCLC
  GI50: > 25 µM
  TGI: > 25 µM
SNB-19 CNS
  GI50: > 25 µM
  TGI: > 25 µM
MDA-MB-231 breast
  GI50: > 25 µM
  TGI: > 25 µM

## O=C(Nc1n[nH]c2nc(-c3ccco3)c(Br)cc12)C1CC1
T-47D breast
  GI50: > 25 µM
  TGI: > 25 µM
LOX IMVI melanoma
  GI50: > 21.7 µM
  TGI: > 25 µM
MDA-MB-435
  GI50: > 25 µM
  TGI: > 25 µM
HOP-92 NSCLC
  GI50: > 25 µM
  TGI: > 25 µM
SNB-19 CNS
  GI50: > 25 µM
  TGI: > 25 µM
MDA-MB-231 breast
  GI50: > 25 µM
  TGI: > 25 µM

## Cc1ccc(S(=O)(=O)N/N=C/C(Br)=C(/Br)C(=O)O)cc1
T-47D breast
  TGI: 23.3 µM
LOX IMVI melanoma
  TGI: 11 µM
MDA-MB-435
  TGI: 18.3 µM
HOP-92 NSCLC
  TGI: 39.6 µM
SNB-19 CNS
  TGI: 28.8 µM
MDA-MB-231 breast
  TGI: 36 µM

## O=C1C2CC(Cl)C(SSC3CC4C(=O)N(SC(Cl)(Cl)C(Cl)Cl)C(=O)C4CC3Cl)CC2C(=O)N1SC(Cl)(Cl)C(Cl)Cl (stereo not drawn)
T-47D breast
  TGI: 7.18 µM
LOX IMVI melanoma
  TGI: 3.03 µM
MDA-MB-435
  TGI: 6.23 µM
HOP-92 NSCLC
  TGI: 3 µM
SNB-19 CNS
  TGI: 12.7 µM
MDA-MB-231 breast
  TGI: 3.16 µM

## Cc1ccc2c(c1)NC(c1ccc(C(=O)O)cc1)c1cccn1-2 (stereo not drawn)
T-47D breast
  TGI: 49.2 µM
LOX IMVI melanoma
  TGI: > 100 µM
MDA-MB-435
  TGI: > 100 µM
SNB-19 CNS
  TGI: 94.6 µM
MDA-MB-231 breast
  TGI: > 100 µM

## COC(=O)Nc1nc2ccc(C(=O)c3ccc[nH]3)cc2[nH]1
T-47D breast
  TGI: > 100 µM
LOX IMVI melanoma
  TGI: > 100 µM
MDA-MB-435
  TGI: 0.359 µM
SNB-19 CNS
  TGI: > 54.7 µM
MDA-MB-231 breast
  TGI: > 100 µM

## Cc1ccc(S(=O)(=O)N2CCCSCCSCCCSCC2)cc1
T-47D breast
  TGI: > 100 µM
LOX IMVI melanoma
  TGI: > 100 µM
MDA-MB-435
  TGI: > 100 µM
HOP-92 NSCLC
  TGI: > 100 µM
SNB-19 CNS
  TGI: > 100 µM
MDA-MB-231 breast
  TGI: > 100 µM

## COc1cc(O)c(C(=O)/C=C/c2ccccc2)c(OC)c1
T-47D breast
  TGI: 24.6 µM
LOX IMVI melanoma
  TGI: 6.36 µM
MDA-MB-435
  TGI: 25.5 µM
HOP-92 NSCLC
  TGI: 14.4 µM
SNB-19 CNS
  TGI: 14.6 µM
MDA-MB-231 breast
  TGI: 24.2 µM

## CCCCCCCCCCCCCCCCCCNC(=O)[C@H]1CSC(c2ccc(OC)c(F)c2)N1 (stereo partly drawn)
T-47D breast
  GI50: 2.21 µM
  TGI: 6.57 µM
LOX IMVI melanoma
  GI50: 2.68 µM
  TGI: 15.8 µM
MDA-MB-435
  GI50: 1.22 µM
  TGI: 2.91 µM
HOP-92 NSCLC
  GI50: 7.48 µM
  TGI: 28.9 µM
SNB-19 CNS
  GI50: 21.2 µM
  TGI: > 52.1 µM
MDA-MB-231 breast
  GI50: 1.9 µM
  TGI: 5.16 µM
